Assay results reported in PMC7471840, “Autoantigens PLA2R and THSD7A in membranous nephropathy share a common epitope motif in the N-terminal domain” (Journal of Autoimmunity, 2020).

Experiments:
[1] = system: affinity purified antibodies from PLA2R positive sera against PLA2R antigen; experiment: BLI of affinity purified anti-PLA2R (against PLA2R antigen); format: binding, human; conditions: immobilized peptide, antibodies eluted from PLA2R antigen beads (positive control)
Procedure: (§1) 2 mg of MyOne™ carboxylic acid dynabeads per condition (Invitrogen, UK) were activated using 18.75 mg/ml EDC (N-3-dimethylaminopropyl- N′-ethylcarbodiimide hydrochloride, Sigma-Aldrich). 800 μg/ml of recombinant PLA2R fragment (NC3) and peptides (P28mer, T28mer or T28mer scrambled peptide) diluted in 15 mM MES buffer pH 6 were covalently immobilized overnight at 4 °C. The conditioned beads were then deactivated using 1 M ethanolamine (Bio-Rad) for 1 h. Pooled anti-THSD7A positive MN patient sera were diluted 1:50 in PBS-T and incubated (overnight at 4 °C with agitation) with 1 mg of either blank immobilized, T28mer immobilized or T28mer scrambled peptide immobilized magnetic beads. Pooled anti-PLA2R positive MN patient sera were similarly diluted and incubated with blank immobilized, PLA2R antigen immobilized or P28mer immobilized magnetic beads. Magnetic beads from all conditions were then precipitated, the supernatants removed, and washed three times in PBS-T. Bound antibodies were eluted with 0.1 M glycine pH 2.2 and the eluates from each condition were neutralized using 1 M TrisHCl pH 8. The affinity-purified eluate from each condition was then evaluated for binding to the P28mer and T28mer by BLI. The BLI analysis was executed as stated in section 2.9.1.1. with modification of the running buffer. […]

[2] = system: sera from ANCA vasculitis patients; experiment: Slot blotting with ANCA vasculitis sera; format: binding, human; conditions: slot blot, non-reducing; 1 μg peptide; pool of 5 sera, 1:100
Procedure: (§2) PLA2R, CysR domain, THSD7A (R&D Systems) and TSR1 protein samples (1 μg per lane) were resolved using 4–12% BisTris gradient gels with the MES buffer system, transferred to nitrocellulose membranes and blotted using patient sera (1:100 dilution) followed by incubation with Alexa Fluor® 680-AffiniPure Goat Anti-Human IgG, Fcγ Fragment Specific (min X Bov,Hrs,Ms Sr Prot) (1:10,000 dilution; Jackson Labs). Proteins were also analyzed using Moab 20-2-6, a monoclonal anti-PLA2R mouse antibody raised against a PLA2R fragment (see 2.4.1 for further details) at dilution 1:5000. Protein bands were visualized using an Odyssey Imaging System (LI-COR) at 700 nm and the intensity settings were kept constant for all blots allowing comparison. For slot blotting, 1 μg of proteins or peptides (P28mer aa38–65 and T28mer aa75-102 synthesized by ProImmune Ltd, Oxford, UK) were blotted directly onto nitrocellulose membrane and vacuum applied. For the reducing condition, samples were diluted in 10 mM Tris pH 8 then reduced and alkylated by sequential incubation with 50 mM DTT for 1 h at 37 °C and then with 125 mM iodoacetamide for 20 min in the dark. The reduced samples along with unreduced were blotted as described above.
(§3) Fig.6 - Slot blot analysis of sera from IgAN and
(§4) Hu anti-IgAN Hu anti-ANCA Ponceau
(§5) CysR P28sc CysR P28sc CysR P28sc […]

[3] = system: PLA2R autoantibodies in anti-PLA2R positive MN patient sera; experiment: BLI off-rate of MN patient sera, anti-PLA2R positive sera on immobilized peptides; format: binding, human; conditions: Octet Red, peptide immobilized on AR2G sensor, sera 1:100 in HEPES-T sera (10 mM HEPES, 150 mM NaCl, 0.05% Tween-20, 0.5% control sera), association 450s, dissociation 1200s, Hill fit, ten anti-PLA2R positive sera
Procedure: (§6) BLI experiments were conducted using an Octet Red (ForteBio, Nottingham, UK). P28mer and T28mer were diluted to 200 μg/ml in 10 mM sodium acetate, pH 4.5, and immobilized on an Octet AR2G sensor (ligand densities of 1.2 nm and 1.4 nm respectively). Patient sera were diluted 1:100 in HEPES-T sera (10 mM HEPES, 150 mM NaCl, 0.05% Tween-20 and 0.5% of a pool of human control sera). Three control normal sera were incorporated in the running buffer in order to provide the baseline binding (i.e. normalize the binding due to any spurious interaction) and allowing quantification of binding above this background. […] Sensors were incubated in MN sera for 450s (association phase) followed by HEPES-T sera for 1200s (dissociation phase). Regeneration was performed in 10 mM NaOH with three successive incubations. The peptide immobilized sensors responses to MN patient sera were calibrated against non-specific binding of each sensor to the HEPES-T sera buffer. The data were fitted to a Hill-1 plot with the inverse k value equivalent to the off rates (koff). Statistical analysis was performed using two way ANOVA multiple comparison or paired t-test as stated in the figure legends. p values of <0.05 were considered significant.

Moab 20-2-6 [4] = experiment: SPR kinetics of Moab 20-2-6 on immobilized peptides; format: binding, mouse; conditions: ProteOn XPR36, peptide immobilized on GLC chip, Moab 20-2-6 at 25-5 nM, Langmuir 1:1 with mass transfer, printed in Fig. 4B
Description: Hybridoma production was undertaken by Proteogenix SAS (Schiltigheim, France). Mice were immunized with a fragment of human PLA2R protein (namely NC3, comprising the first five extracellular domains, CysR-FnII-CTLD1-CTLD2-CTLD3). Following fusion of spleen cells, 34 positive supernatants were found when screened by ELISA on the NC3 protein. Ten of the original 34 positive supernatants were taken forward for cloning. Following subcloning, 5 of 10 clones were selected for purification of monoclonal antibody which included antibody 20-2-6.
Kinetics were determined using a ProteOn XPR36 (Bio-Rad, Watford, UK). The P28mer and T28mer peptides were diluted to 200 μg/ml in 10 mM sodium acetate, pH 4.5, and immobilized on a ProteOn GLC sensor chip using standard amine coupling chemistry. […] Moab 20-2-6 was diluted to 25, 20, 15, 10, 5 nM in HEPES-T and injected for 120 s at 70 μl/min. The injection was stopped and dissociation phase measured for 800s. Buffer only and a blank immobilized lanes were used as controls and subtracted. The GLC sensor was regenerated in 10 mM NaOH with two successive injections. Kinetics were determined by fitting to a Langmuir 1:1 interaction model.

[5] = system: affinity purified anti-P28mer (PLA2R autoantibodies); experiment: BLI of affinity purified anti-P28mer; format: binding, human; conditions: immobilized peptide, antibodies eluted from P28mer beads, normalized to blank beads
Procedure: as §1

[6] = system: anti-THSD7A positive sera; experiment: Slot blotting with anti-THSD7A positive sera; format: binding, human; conditions: for binding of anti-THSD7A positive sera (slot blot): non-denaturing, 1 μg protein/peptide, sera 1:100, Fig. 2D
Procedure: as §2

[7] = system: sera from IgA Nephropathy (IgAN) patients; experiment: Slot blotting with IgA Nephropathy sera; format: binding, human; conditions: slot blot, non-reducing; 1 μg peptide; pool of 5 sera, 1:100
Procedure: as §2, §3, §4, §5

Moab 20-2-6 [8] = experiment: Slot blotting of peptides with Moab 20-2-6; format: binding, mouse; conditions: non-reducing, 1 μg peptide, antibody 1:5000
Procedure: as §2
(§7) Fig.10 – Specificity of Moab 20-2-6 to P28mer and T28mer.
(§8) Slot blot analysis of unrelated mouse monoclonal
(§9) Moab anti-Transferrin secondary only control […]

[9] = system: THSD7A autoantibodies in anti-THSD7A positive MN patient sera; experiment: BLI off-rate of MN patient sera, anti-THSD7A positive sera on immobilized peptides; format: binding, human; conditions: for Koff (dissociation rate): BLI, Octet Red, peptide immobilized on AR2G sensor, sera 1:100 in HEPES-T sera (10 mM HEPES, 150 mM NaCl, 0.05% Tween-20, 0.5% control sera), association 450s, dissociation 1200s, Hill fit, ten anti-THSD7A positive sera
Procedure: as §6

anti-PLA2R positive sera = experiment: Slot blotting with anti-PLA2R positive sera; format: binding, human; conditions: non-denaturing; 1 μg protein/peptide; sera 1:100; Fig. 2D
Procedure: as §2

[10] = system: affinity purified anti-T28mer (THSD7A autoantibodies); experiment: BLI of affinity purified anti-T28mer; format: binding, human; conditions: immobilized peptide, antibodies from anti-THSD7A sera eluted from T28mer beads, normalized to blank beads
Procedure: as §1

[11] = system: unrelated mouse monoclonal raised against transferrin receptor; experiment: Slot blotting of peptides with unrelated mouse monoclonal; format: binding; conditions: slot blot, non-reducing; 1 μg peptide; antibody 1:5000
Procedure: as §2, §7, §8, §9

[12] = Circular dichroism of the epitope peptides; format: physicochemical; conditions: 0.5 mg/ml; for turn content / unordered content / α-helix content / β-sheet content: CD far-UV 190–260 nm, milliQ water, 0.05-cm path, average of 10 accumulations, BeStSel
Procedure: Lyophilized peptides were reconstituted in milliQ water to a concentration of 2.5 mg/ml and diluted to 0.5 mg/ml. CD Far-UV (190–260 nm) spectra were recorded using a Jasco-810 spectropolarimeter. Measurements were taken every 0.2 nm in a 0.05-cm path length cell. Spectra were corrected for buffer absorbance and represent an average of 10 accumulations. Spectra were recorded in millidegrees and converted to mean residue ellipticities using the following equation deltaE = mdeg x (0.1 x mrw)/path x conc_mg/ml x 3298 (where P28mer mrw = 109.5, T28mer mrw = 107.9). Estimation of secondary structure content was then performed using BeStSel software program.

Substance | binding of affinity purified PLA2R autoantibodies [1] | binding of ANCA vasculitis sera [2] | Koff (dissociation rate) [3] | Kd (Moab 20-2-6 [4]) | binding of affinity purified anti-P28mer [5] | binding of anti-THSD7A positive sera (slot blot) [6] | binding of IgA Nephropathy sera [7] | reactivity of Moab 20-2-6 to peptide (slot blot) (Moab 20-2-6 [8]) | Koff (dissociation rate) [9] | binding of anti-PLA2R positive sera (slot blot) (anti-PLA2R positive sera) | binding of affinity purified anti-T28mer [10] | reactivity of unrelated mouse monoclonal to peptide [11] | turn content [12] | unordered content [12] | α-helix content [12] | β-sheet content [12] | number of anti-THSD7A sera recognizing the peptide ([6]; native blotting, ten anti-THSD7A sera tested) | preference of sera THSD7A autoantibodies between peptides (by dissociation rates) ([9]; T28mer vs P28mer, Fig. 3B **** p value < 0.001 (two-way ANOVA)) | negative peak in CD spectrum ([12]; CD far-UV)
P28mer: known major PLA2R CysR epitope peptide, aa38-65, synthesized by ProImmune | bind to both epitope peptides | no binding | 0.0028 s⁻¹ | 0.0887 nM | bind to both epitope peptides | reacted with both P28mer and T28mer | no binding | reactivity | 0.0068 s⁻¹ | reacted with both P28mer and T28mer | bind to both epitope peptides | no reactivity | 21.3% | 45.2% | 12.1% | 21.3% | – | – | –
T28mer: THSD7A epitope peptide, aa75-102, located in the TSR1 domain, synthesized by ProImmune (GPGGIQTRAVWCAHVEGWTTLHTNCKQA; UniProt Q9UPZ6 75-102, looked up, fragment) | bind to both epitope peptides | no binding | 0.0009 s⁻¹ | 0.101 nM | bind to both epitope peptides | reacted with both P28mer and T28mer | no binding | reactivity | 0.0013 s⁻¹ | reacted with both P28mer and T28mer | bind to both epitope peptides | no reactivity | 15% | 46.7% | 6.5% | 31.8% | All ten anti-THSD7A sera tested recognized the T28mer peptide | preferentially bind to the T28mer over P28mer | around 205 nm
